# Test results taken from paper PMC7126659 (Bioorganic & Medicinal Chemistry Letters, 2007).
# Columns and labels:
# ACE2 [1] = target: T1, ACE2 (Homo sapiens, UniProt Q9BYF1); conditions: it has been reported; no reference given; cited from earlier work
# ACE2 [2] = target: T1, ACE2; assay: Directed screen of ACE2 versus a set of metalloprotease inhibitors; type: biochemical; conditions: directed screen of GlaxoSmithKline metalloprotease inhibitor set
# T1 sequence (Q9BYF1 18-805): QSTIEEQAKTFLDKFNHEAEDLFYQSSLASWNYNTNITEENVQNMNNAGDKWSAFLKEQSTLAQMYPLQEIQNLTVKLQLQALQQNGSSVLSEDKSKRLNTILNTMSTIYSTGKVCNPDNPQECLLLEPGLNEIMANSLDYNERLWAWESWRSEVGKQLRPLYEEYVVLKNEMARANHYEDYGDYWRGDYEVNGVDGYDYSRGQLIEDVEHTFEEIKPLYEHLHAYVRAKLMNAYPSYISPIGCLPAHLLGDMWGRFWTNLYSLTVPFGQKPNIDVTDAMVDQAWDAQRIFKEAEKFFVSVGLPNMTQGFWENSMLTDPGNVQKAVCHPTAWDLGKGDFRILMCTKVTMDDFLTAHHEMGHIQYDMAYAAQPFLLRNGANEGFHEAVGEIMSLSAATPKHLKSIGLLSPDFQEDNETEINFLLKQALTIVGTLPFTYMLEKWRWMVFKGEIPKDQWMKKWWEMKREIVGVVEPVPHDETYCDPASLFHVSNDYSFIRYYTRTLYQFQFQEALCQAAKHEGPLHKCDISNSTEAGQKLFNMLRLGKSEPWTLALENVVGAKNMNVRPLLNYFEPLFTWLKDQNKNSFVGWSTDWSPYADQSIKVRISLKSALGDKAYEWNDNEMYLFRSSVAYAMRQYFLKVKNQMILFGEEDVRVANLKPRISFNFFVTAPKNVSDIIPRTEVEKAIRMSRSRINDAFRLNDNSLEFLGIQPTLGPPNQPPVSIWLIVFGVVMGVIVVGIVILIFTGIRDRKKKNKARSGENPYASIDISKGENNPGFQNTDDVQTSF
SMILES,effect on ACE2 enzyme activity (ACE2 [1]),activity in the ACE2 screen (ACE2 [2])
NCCCC[C@H](N[C@@H](CCc1ccccc1)C(=O)O)C(=O)N1CCC[C@H]1C(=O)O [lisinopril],do not attenuate ACE2 enzyme activity,–
C[C@H](CS)C(=O)N1CCC[C@H]1C(=O)O [captopril],do not attenuate ACE2 enzyme activity,inactive
